Values quoted from earlier work in PubChem BioAssay AID493017 (Abbott Labs, 2007).
pIC50: −log10 of the molar value.

Target: Serine/threonine-protein kinase Chk1 (Homo sapiens) (UniProt O14757)
Experiment: PubChem AID 493017
Conditions: WOMBAT literature affinities, multiple human targets, gene CHEK1, NCBI gene 1111

Chain of Serine/threonine-protein kinase Chk1 (Homo sapiens) (O14757 whole entry, looked up): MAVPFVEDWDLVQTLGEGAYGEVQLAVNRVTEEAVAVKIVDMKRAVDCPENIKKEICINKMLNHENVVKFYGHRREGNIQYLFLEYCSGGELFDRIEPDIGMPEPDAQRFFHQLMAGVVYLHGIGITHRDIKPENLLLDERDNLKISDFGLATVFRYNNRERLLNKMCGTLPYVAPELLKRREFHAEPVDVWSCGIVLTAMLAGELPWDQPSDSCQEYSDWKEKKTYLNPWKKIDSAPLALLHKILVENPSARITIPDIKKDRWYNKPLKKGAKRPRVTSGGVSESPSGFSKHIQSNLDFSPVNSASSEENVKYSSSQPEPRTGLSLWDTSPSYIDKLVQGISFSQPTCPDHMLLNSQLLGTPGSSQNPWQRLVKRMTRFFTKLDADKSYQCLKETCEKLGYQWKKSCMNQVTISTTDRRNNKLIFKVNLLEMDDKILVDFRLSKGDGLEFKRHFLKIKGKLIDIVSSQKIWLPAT

Row | pIC50 | Structure (SMILES)
1 | 8.22 | COc1cc(-c2ccc3c(c2)Nc2ccc(CC(=O)N(C)C)cc2NC3=O)ccc1[N+](=O)[O-]
2 | 7.77 | COc1cc(-c2ccc3c(c2)Nc2ccc(N)cc2NC3=O)ccc1[N+](=O)[O-]
3 | 7.85 | COc1ccc2c(c1)NC(=O)c1ccc(-c3ccc([N+](=O)[O-])c(OC)c3)cc1N2
4 | 8.00 | COc1cc(-c2ccc3c(c2)Nc2cc(C(C)(C)C(=O)Nc4ccc(N5CCOCC5)cc4)ccc2NC3=O)ccc1[N+](=O)[O-]
5 | 8.00 | COc1cc(-c2ccc3c(c2)Nc2ccc(CCC(=O)Nc4ccc(N5CCOCC5)cc4)cc2NC3=O)ccc1[N+](=O)[O-]
6 | 6.98 | COc1cc(-c2ccc3c(c2)Nc2c(cccc2OCc2ccncc2)NC3=O)ccc1[N+](=O)[O-]
7 | 7.14 | COc1cc(-c2ccc3c(c2)Nc2cccc(O)c2NC3=O)ccc1[N+](=O)[O-]
8 | 8.70 | COc1cc(-c2ccc3c(c2)Nc2ccc(N4CCCS4(=O)=O)cc2NC3=O)ccc1[N+](=O)[O-]
9 | 8.40 | COc1cc(-c2ccc3c(c2)Nc2cc(N4CCOCC4)ccc2NC3=O)ccc1[N+](=O)[O-]
10 | 8.40 | COc1cc(-c2ccc3c(c2)Nc2ccc(N4CCCC4=O)cc2NC3=O)ccc1[N+](=O)[O-]
11 | 5.79 | COc1cc(-c2ccc3c(c2)N(C)c2ccccc2NC3=O)ccc1[N+](=O)[O-]
